According to patent US6479435B1, “Diaryl ethers and processes for their preparation and herbicidal and desiccant compositions containing them” (ISK Americas Incorporated, priority 1997, dated 2002):

Experiments:
Assay type in all cases: in vivo
[1] = test system: Johnsongrass (Sorghum halepense, SORHA); assay: Pre-emerge greenhouse herbicide test, phytotoxicity rating; conditions: 14 days after application, rating scale 0-100
Method in brief: (§1)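 Seeds sown in sandy loam one day before track-sprayer application of acetone solutions at 125–1000 g ai/ha (187 l/ha), then surface-watered to incorporate and bottom-watered. Injury scored visually at 14 days on a 0–100 scale (0 no damage, 100 complete death).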

[2] = test system: barnyardgrass (Echinochloa crusgalli, ECHCG); assay: as above; conditions: 14 days after application, rating scale 0-100
Method in brief: as §1

[3] = test system: common ragweed (Ambrosia artemisiifolia L., AMBEL); assay: as above; conditions: 14 days after application, rating scale 0-100
Method in brief: as §1

[4] = test system: green foxtail (Setaria viridis, SETVI); assay: as above; conditions: 14 days after application, rating scale 0-100
Method in brief: as §1

[5] = test system: ivyleaf morningglory (Ipomoea hederacea, IPOHE); assay: as above; conditions: 14 days after application, rating scale 0-100
Method in brief: as §1

[6] = test system: lambsquarters (Chenopodium album, CHEAL); assay: as above; conditions: 14 days after application, rating scale 0-100
Method in brief: as §1

[7] = test system: large crabgrass (Digitaria sanguinalis, DIGSA); assay: as above; conditions: 14 days after application, rating scale 0-100
Method in brief: as §1

[8] = test system: redroot pigweed (Amaranthus retroflexus, AMARE); assay: as above; conditions: 14 days after application, rating scale 0-100
Method in brief: as §1

[9] = test system: sicklepod (Cassia obtusifolia, CASOB); assay: as above; conditions: 14 days after application, rating scale 0-100
Method in brief: as §1

[10] = test system: velvetleaf (Abutilon theophrasti, ABUTH); assay: as above; conditions: 14 days after application, rating scale 0-100
Method in brief: as §1

[11] = test system: field corn (Zea mays L., var. Dekalb 535, CORN); assay: Pre-emerge greenhouse test, crop damage rating; conditions: 14 days after application, rating scale 0-100
Method in brief: as §1

[12] = test system: upland rice (Oryza sp., var.Tebonnet, RICE); assay: Pre-emerge greenhouse test, crop damage rating; conditions: 14 days after application, rating scale 0-100
Method in brief: as §1

[13] = test system: soybean (Glycine max L., var. Pella 86, SOY); assay: Pre-emerge greenhouse test, crop damage rating; set-up: key to SOY crop damage rating: 0 = no damage, 100 = complete death of all plants; conditions: 14 days after application, rating scale 0-100
Method in brief: as §1

[14] = test system: common ragweed (Ambrosia artemisiifolia L., AMBEL); assay: Post-emerge greenhouse herbicide test, phytotoxicity rating; conditions: 14 days after application, scale 0-100
Method in brief: (§2)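 Plants at the 2-3 leaf stage, sown 8-21 days earlier, were track-sprayed post-emergence with compound in acetone plus 0.25% v/v non-ionic surfactant at 63-1000 g ai/ha (187 l/ha). Damage was rated at 14 days on a 0-100 scale (0 none, 100 all plants dead), for both crop injury and weed control.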

[15] = test system: Johnsongrass (Sorghum halepense, SORHA); assay: as above; conditions: 14 days after application, scale 0-100
Method in brief: as §2

[16] = test system: barnyardgrass (Echinochloa crusgalli, ECHCG); assay: as above; conditions: 14 days after application, scale 0-100
Method in brief: as §2

[17] = test system: green foxtail (Setaria viridis, SETVI); assay: as above; conditions: 14 days after application, scale 0-100
Method in brief: as §2

[18] = test system: ivyleaf morningglory (Ipomoea hederacea, IPOHE); assay: as above; conditions: 14 days after application, scale 0-100
Method in brief: as §2

[19] = test system: lambsquarters (Chenopodium album, CHEAL); assay: as above; conditions: 14 days after application, scale 0-100
Method in brief: as §2

[20] = test system: large crabgrass (Digitaria sanguinalis, DIGSA); assay: as above; conditions: 14 days after application, scale 0-100
Method in brief: as §2

[21] = test system: redroot pigweed (Amaranthus retroflexus, AMARE); assay: as above; conditions: 14 days after application, scale 0-100
Method in brief: as §2

[22] = test system: sicklepod (Cassia obtusifolia, CASOB); assay: as above; conditions: 14 days after application, scale 0-100
Method in brief: as §2

[23] = test system: velvetleaf (Abutilon theophrasti, ABUTH); assay: as above; conditions: 14 days after application, scale 0-100
Method in brief: as §2

[24] = test system: field corn (Zea mays L., var. Dekalb 535, CORN); assay: Post-emerge greenhouse test, crop damage rating; conditions: 14 days after application, scale 0-100
Method in brief: as §2

[25] = test system: upland rice (Oryza sp., var.Tebonnet, RICE); assay: Post-emerge greenhouse test, crop damage rating; conditions: 14 days after application, scale 0-100
Method in brief: as §2

[26] = test system: soybean (Glycine max L., var. Pella 86, SOY); assay: Post-emerge greenhouse test, crop damage rating; set-up: key to crop damage rating SOY: 0-100 scale: 0 = no damage, 100 = complete death of all plants; conditions: 14 days after application, scale 0-100
Method in brief: as §2

O=c1n(-c2cc(Oc3nc(F)c(F)cc3F)c(Cl)cc2F)c(=S)n2n1CCCC2 [Compound 8-28]
SORHA phytotoxicity rating ([1]; Rate 125 g al/ha): 90 | SORHA phytotoxicity rating ([1]; Rate 500 g al/ha): 95 | ECHCG phytotoxicity rating ([2]; Rate 125 g al/ha): 60 | ECHCG phytotoxicity rating ([2]; Rate 500 g al/ha): 95 | AMBEL phytotoxicity rating ([3]; Rate 125 g al/ha): 80 | AMBEL phytotoxicity rating ([3]; Rate 500 g al/ha): 100 | SETVI phytotoxicity rating ([4]; Rate 125 g al/ha): 100 | SETVI phytotoxicity rating ([4]; Rate 500 g al/ha): 100 | IPOHE phytotoxicity rating ([5]; Rate 125 g al/ha): 30 | IPOHE phytotoxicity rating ([5]; Rate 500 g al/ha): 40 | CHEAL phytotoxicity rating ([6]; Rate 125 g al/ha): 100 | CHEAL phytotoxicity rating ([6]; Rate 500 g al/ha): 100 | DIGSA phytotoxicity rating ([7]; Rate 125 g al/ha): 100 | DIGSA phytotoxicity rating ([7]; Rate 500 g al/ha): 100 | AMARE phytotoxicity rating ([8]; Rate 125 g al/ha): 100 | AMARE phytotoxicity rating ([8]; Rate 500 g al/ha): 100 | CASOB phytotoxicity rating ([9]; Rate 125 g al/ha): 100 | CASOB phytotoxicity rating ([9]; Rate 500 g al/ha): 90 | ABUTH phytotoxicity rating ([10]; Rate 125 g al/ha): 100 | ABUTH phytotoxicity rating ([10]; Rate 500 g al/ha): 100 | CORN crop damage rating ([11]; Rate 125 g al/ha): 15 | CORN crop damage rating ([11]; Rate 500 g al/ha): 15 | RICE crop damage rating ([12]; Rate 125 g al/ha): 25 | RICE crop damage rating ([12]; Rate 500 g al/ha): 70 | SOY crop damage rating ([13]; Rate 125 g al/ha): 10 | SOY crop damage rating ([13]; Rate 500 g al/ha): 10 | phytotoxicity rating AMBEL ([14]; rate 63 g ai/ha): 50 | phytotoxicity rating AMBEL ([14]; rate 500 g ai/ha): 90 | phytotoxicity rating SORHA ([15]; rate 63 g ai/ha): 40 | phytotoxicity rating SORHA ([15]; rate 500 g ai/ha): 60 | phytotoxicity rating ECHCG ([16]; rate 63 g ai/ha): 10 | phytotoxicity rating ECHCG ([16]; rate 500 g ai/ha): 80 | phytotoxicity rating SETVI ([17]; rate 63 g ai/ha): 30 | phytotoxicity rating SETVI ([17]; rate 500 g ai/ha): 90 | phytotoxicity rating IPOHE ([18]; rate 63 g ai/ha): 90 | phytotoxicity rating IPOHE ([18]; rate 500 g ai/ha): 95 | phytotoxicity rating CHEAL ([19]; rate 63 g ai/ha): 90 | phytotoxicity rating CHEAL ([19]; rate 500 g ai/ha): 100 | phytotoxicity rating DIGSA ([20]; rate 63 g ai/ha): 20 | phytotoxicity rating DIGSA ([20]; rate 500 g ai/ha): 30 | phytotoxicity rating AMARE ([21]; rate 63 g ai/ha): 100 | phytotoxicity rating AMARE ([21]; rate 500 g ai/ha): 100 | phytotoxicity rating CASOB ([22]; rate 63 g ai/ha): 50 | phytotoxicity rating CASOB ([22]; rate 500 g ai/ha): 100 | phytotoxicity rating ABUTH ([23]; rate 63 g ai/ha): 100 | phytotoxicity rating ABUTH ([23]; rate 500 g ai/ha): 100 | crop damage rating CORN ([24]; rate 63 g ai/ha): 10 | crop damage rating CORN ([24]; rate 500 g ai/ha): 20 | crop damage rating RICE ([25]; rate 63 g ai/ha): 10 | crop damage rating RICE ([25]; rate 500 g ai/ha): 40 | crop damage rating SOY ([26]; rate 63 g ai/ha): 50 | crop damage rating SOY ([26]; rate 500 g ai/ha): 90

N#Cc1ccc(Oc2cc(-n3c(=O)n4n(c3=S)CCCC4)c(F)cc2Cl)nc1 [Compound 8-22]
SORHA phytotoxicity rating ([1]; Rate 125 g al/ha): 0 | SORHA phytotoxicity rating ([1]; Rate 500 g al/ha): 20 | ECHCG phytotoxicity rating ([2]; Rate 125 g al/ha): 0 | ECHCG phytotoxicity rating ([2]; Rate 500 g al/ha): 30 | AMBEL phytotoxicity rating ([3]; Rate 125 g al/ha): 100 | AMBEL phytotoxicity rating ([3]; Rate 500 g al/ha): 100 | SETVI phytotoxicity rating ([4]; Rate 125 g al/ha): 40 | SETVI phytotoxicity rating ([4]; Rate 500 g al/ha): 100 | IPOHE phytotoxicity rating ([5]; Rate 125 g al/ha): 40 | IPOHE phytotoxicity rating ([5]; Rate 500 g al/ha): 10 | CHEAL phytotoxicity rating ([6]; Rate 125 g al/ha): 100 | CHEAL phytotoxicity rating ([6]; Rate 500 g al/ha): 100 | DIGSA phytotoxicity rating ([7]; Rate 125 g al/ha): 20 | DIGSA phytotoxicity rating ([7]; Rate 500 g al/ha): 90 | AMARE phytotoxicity rating ([8]; Rate 125 g al/ha): 100 | AMARE phytotoxicity rating ([8]; Rate 500 g al/ha): 100 | CASOB phytotoxicity rating ([9]; Rate 125 g al/ha): 20 | CASOB phytotoxicity rating ([9]; Rate 500 g al/ha): 90 | ABUTH phytotoxicity rating ([10]; Rate 125 g al/ha): 100 | ABUTH phytotoxicity rating ([10]; Rate 500 g al/ha): 100 | CORN crop damage rating ([11]; Rate 125 g al/ha): 0 | CORN crop damage rating ([11]; Rate 500 g al/ha): 60 | RICE crop damage rating ([12]; Rate 125 g al/ha): 0 | RICE crop damage rating ([12]; Rate 500 g al/ha): 40 | SOY crop damage rating ([13]; Rate 125 g al/ha): 50 | SOY crop damage rating ([13]; Rate 500 g al/ha): 70 | phytotoxicity rating AMBEL ([14]; rate 63 g ai/ha): 80 | phytotoxicity rating AMBEL ([14]; rate 500 g ai/ha): 100 | phytotoxicity rating SORHA ([15]; rate 63 g ai/ha): 0 | phytotoxicity rating SORHA ([15]; rate 500 g ai/ha): 30 | phytotoxicity rating ECHCG ([16]; rate 63 g ai/ha): 10 | phytotoxicity rating ECHCG ([16]; rate 500 g ai/ha): 30 | phytotoxicity rating SETVI ([17]; rate 63 g ai/ha): 20 | phytotoxicity rating SETVI ([17]; rate 500 g ai/ha): 75 | phytotoxicity rating IPOHE ([18]; rate 63 g ai/ha): 80 | phytotoxicity rating IPOHE ([18]; rate 500 g ai/ha): 100 | phytotoxicity rating CHEAL ([19]; rate 63 g ai/ha): 100 | phytotoxicity rating CHEAL ([19]; rate 500 g ai/ha): 100 | phytotoxicity rating DIGSA ([20]; rate 63 g ai/ha): 0 | phytotoxicity rating DIGSA ([20]; rate 500 g ai/ha): 30 | phytotoxicity rating AMARE ([21]; rate 63 g ai/ha): 95 | phytotoxicity rating AMARE ([21]; rate 500 g ai/ha): 100 | phytotoxicity rating CASOB ([22]; rate 63 g ai/ha): 50 | phytotoxicity rating CASOB ([22]; rate 500 g ai/ha): 80 | phytotoxicity rating ABUTH ([23]; rate 63 g ai/ha): 100 | phytotoxicity rating ABUTH ([23]; rate 500 g ai/ha): 100 | crop damage rating CORN ([24]; rate 63 g ai/ha): 53 | crop damage rating CORN ([24]; rate 500 g ai/ha): 15 | crop damage rating RICE ([25]; rate 63 g ai/ha): 5 | crop damage rating RICE ([25]; rate 500 g ai/ha): 10 | crop damage rating SOY ([26]; rate 63 g ai/ha): 65 | crop damage rating SOY ([26]; rate 500 g ai/ha): 95
